Source: patent EP2153845A1, “Endoglin peptides, vaccines and methods for preparing the same” (Julius-Maximilians-Universität Würzburg, priority 2008, dated 2010)
Blank lines part the entries; values can stand above or below the molecule they belong to.

Assays:
[1] = tested on: peripheral blood lymphocytes of melanoma patients; assay: human IFN-γ ELISPOT after in vitro peptide stimulation of PBL; assay type: cell-based; settings: for specific immune responses / T cell activity in vitro (IFN-γ ELISPOT): PBL of melanoma patients prestimulated in vitro with 10 µM peptide, Figs. 4 and 5; for specific responses in peripheral blood of melanoma patients in comparison to control experiments and parental peptides: IFN-γ ELISPOT, modified versus parental peptides, Fig. 5
Procedure: To extend the sensitivity of the ELISPOT assay, PBL were stimulated once in vitro before analysis (McCutcheon et al., 1997). At day 0, PBL were thawed or freshly isolated from peripheral blood and plated in a cell concentration of 1x10^6/ml and 5 ml/well in 6-well plates (Greiner GmbH, Frickenhausen, Germany) in X-vivo medium (Cambrex Biosciences, Verviers, Belgium) with 10% heat inactivated human AB serum in the presence of 10 µM peptide (GeneScript Corporation, Piscataway, New Jersey, USA). On day 1 and 4 40 U IL-2/ml (Proleukin, Chiron GmbH, Munich, Gemany) were added to the culture. The cultured cells were tested for reactivity in ELISPOT on day 7.
The human IFN-γ ELISPOT assay was used to quantify peptide epitope-specific IFN-γ-releasing effector cells as described in Berke et al. 2000. Nitrocellulose-bottomed 96-well plates (MultiScreen MAIP N45, Millipore GmbH, Schwalbach, Germany) were activated with 35% ethanol, washed with PBS and coated with anti-IFN-γ antibody (1-D1 K, Mabtech, Hamburg, Germany). The wells were washed and blocked by X-vivo medium before adding 1x10^4 stimulator T2 cells loaded with or without 10 µM peptide and 3x10^5, 1x10^5 or 3x10^4 effector cells. After incubation overnight the wells were washed before addition of biotinylated secondary antibody (7-B6-1-Biotin, Mabtech, Hamburg, Germany). The plates were incubated for 2 h, washed, and streptavidine-enzyme conjugate (Streptavidin-ALP-PQ, Mabtech, Hamburg, Germany) was added. Incubation at room temperature for 1 h was followed by addition of enzyme substrate NBT/BCIP (Mabtech, Hamburg, Germany). The reaction was stopped by washing with tap water upon the appearance of dark purple spots. Spots were counted using the ImmunoSpot Series 2.0 Analyzer (CTL Cellular Technology Ltd., Schwäbisch Gmünd, Germany). The peptide-specific CTL frequency was calculated from the numbers of spot-forming cells. All assays were performed in duplicates. Responders were defined as having an average number of > 25 antigen-specific spots per 10^5 Cells (Spots with peptide - Spots without peptide).

[2] = tested on: HLA-A2/k^b transgenic mice; assay: immunization of mice and analysis of immune responses by murine IFN-γ ELISPOT; assay type: in vivo; settings: Fig. 6; for T cell IFN-γ responses after immunization of mice: HLA-A2/k^b transgenic mice vaccinated with peptides and incomplete Freund's adjuvant, spleen cells in ELISPOT; for immune responses in the mouse model in comparison to control experiments and parental epitopes: HLA-A2/k^b transgenic mice, modified versus parental peptides
Procedure: HLA-A2/k^b transgenic mice (deposited by Linda A. Sherman at MMRCC, University of North Carolina, Chapel Hill, USA) were immunized with a mixture of 5-6 CD105 peptides (5 µg/peptide) and incomplete Freund's adjuvant 7 times once weekly. Spleen cells were analyzed in a murine IFN-γ ELISPOT after in vitro stimulation. Cells were stimulated for six days with 200 U IL-2/ml and 10 µM peptide loaded, mitomycin C treated LPS blasts, generated by stimulation of HLA-A2k^b spleen cells with 25 µg/ml LPS (Sigma-Aldrich, Taufkirchen, Germany) and 7 µg/ml dextran sulfate for three days. Subsequently 3x10^5, 1x10^5, and 0.3x10^5 spleen cells were seeded with or without 10 µM peptide in RPMI 1640/10% FCS in duplicates in nitrocellulose-bottomed 96-well plates (MultiScreen MAIP N45, Millipore GmbH) coated with an IFN-γ specific coating antibody (Mabtech) and blocked with cell culture medium and incubated overnight. The development of the murine IFN-γ ELISPOT was done as described for the human ELISPOT, with the exception that PBS/0.05% Tween 20 was used as washing buffer and the biotinylated anti-mouse IFN-γ antibody (Mabtech, diluted in PBS/1% BSA) as detection antibody. Table 1: Sequence listing

[3] = biological target: T1, human leukocyte antigen A2 (HLA-A2) on the acid-stripped HLA-A2 positive cell line JY (human); assay: competitive binding assay vs fluorescein-labeled reference peptide on acid-stripped HLA-A2 positive JY cells, flow cytometry
T1 construct: whole, on cells; Empty, acid-stripped HLA-A2 on JY cells; also called HLA-A*0201

[4] = biological target: T1, human leukocyte antigen A2 (HLA-A2) on …; assay: competitive binding assay on acid-stripped JY cells, flow cytometry

Molecule: SEQ ID NO: 1 (ALLLASCSL)
specific immune responses / T cell activity in vitro (IFN-γ ELISPOT) [1]: induce T cell activity in vitro very efficiently

Molecule: SEQ ID NO: 3 (LILQGPPYV)
specific immune responses / T cell activity in vitro (IFN-γ ELISPOT) [1]: induce T cell activity in vitro very efficiently
T cell IFN-γ responses after immunization of mice [2]: high T cell IFN-γ responses

Molecule: SEQ ID NO: 7 (SVSEFLLQL)
specific immune responses / T cell activity in vitro (IFN-γ ELISPOT) [1]: induce T cell activity in vitro very efficiently
T cell IFN-γ responses after immunization of mice [2]: high T cell IFN-γ responses

Molecule: SEQ ID NO: 8 (LLHFYTVPI)
specific immune responses / T cell activity in vitro (IFN-γ ELISPOT) [1]: induce T cell activity in vitro very efficiently
T cell IFN-γ responses after immunization of mice [2]: high T cell IFN-γ responses

Molecule: SEQ ID NO: 10 (LLTAALWYI)
specific immune responses / T cell activity in vitro (IFN-γ ELISPOT) [1]: induce T cell activity in vitro very efficiently
T cell IFN-γ responses after immunization of mice [2]: high T cell IFN-γ responses

Molecule: SEQ ID NO: 12 (SLVASFVEV)
specific responses in peripheral blood of melanoma patients in comparison to control experiments and parental peptides [1]: multiplied
specific immune responses / T cell activity in vitro (IFN-γ ELISPOT) [1]: induce T cell activity in vitro very efficiently
T cell IFN-γ responses after immunization of mice [2]: high T cell IFN-γ responses
immune responses in the mouse model in comparison to control experiments and parental epitopes [2]: enhanced immune responses

Molecule: SEQ ID NO: 15 (FLIGALLTV)
specific responses in peripheral blood of melanoma patients in comparison to control experiments and parental peptides [1]: multiplied
specific immune responses / T cell activity in vitro (IFN-γ ELISPOT) [1]: induce T cell activity in vitro very efficiently
T cell IFN-γ responses after immunization of mice [2]: high T cell IFN-γ responses
immune responses in the mouse model in comparison to control experiments and parental epitopes [2]: enhanced immune responses

Molecule: SEQ ID NO: 16 (LLTAALWYV)
specific responses in peripheral blood of melanoma patients in comparison to control experiments and parental peptides [1]: multiplied
specific immune responses / T cell activity in vitro (IFN-γ ELISPOT) [1]: induce T cell activity in vitro very efficiently
T cell IFN-γ responses after immunization of mice [2]: high T cell IFN-γ responses
immune responses in the mouse model in comparison to control experiments and parental epitopes [2]: enhanced immune responses

IC50 [3]: ≤ 3.5 µM
B1: hCD105 309-317 (310L, 317V) (peptide)
peptide: SLVASFVEV
notes: also called AA 310: leucine AA 317: valine

IC50 [3]: ≤ 3.5 µM
Molecule: LLLQGPPYV (also called AA 252: leucine) [hCD105 251-259 (252L)]

binding result [4]: binds
B2: hCD105 251-259 (peptide)
peptide: LILQGPPYV
notes: Synthetic nonamer selected from human CD105 (endoglin); also called parental peptide

binding result [4]: binds
B3: hCD105 61-69 (peptide)
peptide: ILEVHVLFL
notes: as for B2

IC50 [3]: ≤ 3.5 µM
Molecule: LLTAALWYV (also called AA 613: valine) [hCD105 605-613 (613V)]

binding result [4]: binds
B4: hCD105 605-613 (peptide)
peptide: LLTAALWYI
notes: as for B2

binding result [4]: binds
B5: hCD105 482-490 (peptide)
peptide: SVSEFLLQL
notes: as for B2

binding result [4]: binds
B6: hCD105 309-317 (peptide)
peptide: SIVASFVEL
notes: as for B2

IC50 [3]: ≤ 3.5 µM
Molecule: LLHFYTVPV (also called AA541: valine) [hCD105 533-541 (541V)]

binding result [4]: binds
B7: hCD105 533-541 (peptide)
peptide: LLHFYTVPI
notes: as for B2

binding result [4]: binds
B8: hCD105 298-306 (peptide)
peptide: GLLGEARML
notes: as for B2

IC50 [3]: ≤ 3.5 µM
B9: hCD105 482-490 (483L, 490V) (peptide)
peptide: SLSEFLLQV
notes: also called AA 483: leucine AA 490: valine

IC50 [3]: ≤ 3.5 µM
Molecule: FLIGALLTV (also called AA 608: valine) [hCD105 600-608 (608V)]

binding result [4]: binds
B10: hCD105 600-608 (peptide)
peptide: FLIGALLTA
notes: as for B2

binding result [4]: binds
B11: hCD105 419-427 (peptide)
peptide: SMISNEAVV
notes: as for B2

binding result [4]: binds
B12: hCD105 11-19 (peptide)
peptide: ALLLASCSL
notes: as for B2
